pEC50, pIC50: −log10 of the molar value.

The test system of one series is Hep3B cells. The series is described as follows: Cancer cell viability assay (CellTiter-Glo 2.0), Hep3B. Format: cell-based, Human. Particulars: 72 hours compound treatment. The procedure: (§1) Human liver cancer cell lines HepG2, Hep3B, Huh7, and SK-HEP-1 cells were rinsed and trypsinized with 0.25% trypsin (Corning #25-053-CI) in an incubator at 37° C. until detached. The cells were resuspended and seeded in 96-well plates to a density of 5,000 cells per well. Following cell adhesion, compounds were added to a final concentration of 2× dilution. 72 hours following compound treatment, CellTiter-Glo® 2.0 was added to the well in a 2:1 ratio of media/CellTiter-Glo® 2.0. The plates were shielded from light, shaken for 2 minutes, and incubated for 10 minutes. Luminescence was measured on a microplate reader and EC50 values were calculated using Prism 9 software.
On the technique in general: Cellular ATP, detected with luciferase, serves as a proxy for viable cell number.

The test system of a further series is HepG2 cells. The series is described as follows: Cancer cell viability assay (CellTiter-Glo 2.0), HepG2. Format: cell-based, Human. Particulars: HepG2, 72 hours compound treatment. How it is done: as §1
The target in a further series is CDK9/CyclinT (Homo sapiens (Human), UniProt P50750). The series is described as follows: CDK9 biochemical assay (Kinase-Glo Max luminescence). To be noted: 30° C. for 45 minutes. The procedure: To each well of a 96-well plate was added 5× kinase assay buffer with 10 mM DTT (6 μL), 500 μM ATP (1 μL), 5×CDK substrate (10 μL), and water (8 μL). 5 μL of compound were added to the test and positive control groups, while 5 μL of solvent was added to the blank groups. 100 ng of CDK9/CyclinT in 20 μL water was added to the test and positive control groups, while 20 μL of 1× kinase assay buffer was added to the blank groups. The reaction mixtures were incubated at 30° C. for 45 minutes, and 50 μL of Kinase-Glo® Max was added to each well and the plates were shielded from light and incubated for 15 minutes at room temperature. Luminescence was measured on a microplate reader and IC50 values were calculated using Prism 9 software.
CDK9/CyclinT, sequence (P50750 whole entry): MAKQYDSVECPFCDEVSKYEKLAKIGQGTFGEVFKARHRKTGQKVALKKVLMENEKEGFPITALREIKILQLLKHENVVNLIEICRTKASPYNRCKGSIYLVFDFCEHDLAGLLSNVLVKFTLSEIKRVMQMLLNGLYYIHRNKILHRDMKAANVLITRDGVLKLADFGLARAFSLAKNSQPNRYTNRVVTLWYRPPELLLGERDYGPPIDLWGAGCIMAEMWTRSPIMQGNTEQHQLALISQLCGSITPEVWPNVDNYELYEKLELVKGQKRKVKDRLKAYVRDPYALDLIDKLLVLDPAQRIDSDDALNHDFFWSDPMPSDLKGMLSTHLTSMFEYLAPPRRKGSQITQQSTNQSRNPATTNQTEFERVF
CDK9/CyclinT, sequence (O60563 whole entry partner): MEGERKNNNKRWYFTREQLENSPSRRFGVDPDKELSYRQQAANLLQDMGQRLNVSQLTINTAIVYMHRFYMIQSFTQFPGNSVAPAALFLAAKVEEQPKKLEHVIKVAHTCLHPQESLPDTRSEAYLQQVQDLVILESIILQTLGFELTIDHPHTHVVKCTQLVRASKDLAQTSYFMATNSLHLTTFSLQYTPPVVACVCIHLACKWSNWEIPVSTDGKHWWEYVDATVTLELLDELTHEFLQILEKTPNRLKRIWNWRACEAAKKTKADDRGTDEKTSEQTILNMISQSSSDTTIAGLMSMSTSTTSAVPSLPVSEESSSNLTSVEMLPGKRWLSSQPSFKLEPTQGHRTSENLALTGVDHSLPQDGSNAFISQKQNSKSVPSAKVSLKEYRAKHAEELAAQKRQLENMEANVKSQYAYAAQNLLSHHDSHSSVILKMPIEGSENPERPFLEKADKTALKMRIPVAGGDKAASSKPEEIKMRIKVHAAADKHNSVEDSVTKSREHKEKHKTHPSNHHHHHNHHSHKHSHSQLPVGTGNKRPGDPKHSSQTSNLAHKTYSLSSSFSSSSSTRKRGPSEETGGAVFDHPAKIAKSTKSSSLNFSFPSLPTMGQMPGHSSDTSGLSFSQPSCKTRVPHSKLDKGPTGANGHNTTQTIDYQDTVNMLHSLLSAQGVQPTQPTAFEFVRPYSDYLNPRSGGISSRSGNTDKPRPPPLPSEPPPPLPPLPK
(Kinase-Glo measures the ATP left after a reaction by luminescence.)

Series [1] in a line: Pharmacokinetic and tissue distribution study, liver versus blood in mice. It counts as in vivo. To be noted: CD-1 mice, single oral dose 5 mg/kg suspension, 2 hours; compared with NVP-2 (FIG. 1). How it is done:
For mice experiments, the liver and blood pharmacokinetics of compounds were analyzed in CD-1 mice following a single oral administration dose of 5 mg/kg compound suspension.
Liver and blood samples for determination of compound concentration were obtained at 2 hours following administration of compounds (n=3 for each compound). The ratios of compound concentrations in liver versus blood in CD-1 mice following a single oral administration dose of 5 mg/kg compound suspension are summarized in FIG. 1.

The next series has as its system Huh7 cells. The series is described as follows: Cancer cell viability assay (CellTiter-Glo 2.0), Huh7. Format: cell-based, Human. Particulars: Huh7, 72 hours compound treatment. The procedure: as §1
Another series concerns SK-HEP-1 cells. The series is described as follows: Cancer cell viability assay (CellTiter-Glo 2.0), SK-HEP-1. It counts as cell-based, Human. To be noted: SK-HEP-1, 72 hours compound treatment. How it is done:
as §1

Series [2] can be described thus: Pharmacokinetic study, jugular vein versus portal vein blood in rats. Format: in vivo, Sprague-Dawley (SD) rats. Particulars: SD rats, single oral dose 5 mg/kg suspension; compared with NVP-2 (FIG. 2). The procedure: For rat experiments, the pharmacokinetics of compounds in blood collected from jugular vein and portal vein were analyzed in Sprague-Dawley (SD) rats following a single oral administration dose of 5 mg/kg compound suspension. Blood samples for determination of compound concentration were obtained from jugular vein and portal vein at 0.25 h, 0.5 h, 1 h, 2 h, 4 h, 6 h, 8 h, and 24 h following administration of compounds (n=3 for each compound). Collected liver and blood samples were analyzed using an LC-MS/MS method to quantify compound concentrations. The ratios of compound concentrations in blood collected from jugular vein versus portal vein in Sprague-Dawley (SD) rats following a single oral administration dose of 5 mg/kg compound suspension are summarized in FIG. 2.

A short description of series [3]: Tolerability and safety assessment study (body weight change). Format: in vivo. To be noted: BALB/c nude mice; compared with NVP-2 (FIG. 3). The procedure:
Based on the body weight, BALB/c nude mice were randomly assigned to respective groups using a computer-generated randomization procedure. Body weights of all animals were measured daily to record weight changes (relative to day 1) of BALB/c nude mice treated with vehicle and compounds. For routine monitoring, all study animals were monitored for behavior such as mobility, food and water consumption, body weight, eye/hair matting and any other abnormal effect. Any mortality and/or abnormal clinical signs were recorded. The animals were euthanized when they lost significant body mass (emaciated, obvious body weight loss >20%).

For orientation: pEC50 means the EC50 on a negative log10 scale, so that one unit is a factor of ten. As usually defined, the pIC50 is −log10 of the IC50, conventionally taken in molar units. A lower pIC50 goes with a large IC50. `C[C@H](COCCNS(=O)(=O)C(F)(F)F)NC1CCC(Nc2cc(-c3cccc(NCC4(C#N)CCOCC4)n3)c(Cl)cn2)CC1` (mixture of isomers) [Compound 40, N-(2-(2-(((1r,4r)-4-((5′-chloro-6-(((4-cyanotetrahydro-2H-pyran-4-yl)methyl)amino)-[2,4′-bipyridin]-2′-yl)amino)cyclohexyl)amino)propoxy)ethyl)-1,1,1-trifluoromethanesulfonamide]: the pEC50 was 6.30 to 7.00 in the series with Hep3B cells and over 7.00 in the series with HepG2 cells. Also, on CDK9/CyclinT, the negative-log IC50 (pIC50) is 8.30 to 8.60. Also, the “ratio of compound concentrations in liver versus blood” value (“ratio … in liver versus blood” below) in series [1] was “higher liver/blood ratios than NVP-2”.
As for `C[C@H](COCc1nn[nH]n1)N[C@H]1CC[C@H](Nc2cc(-c3cccc(NCC4(C#N)CCOCC4)n3)c(Cl)cn2)CC1` [Compound 2, 4-(((2′-(((1R,4R)-4-(((R)-1-((2H-tetrazol-5-yl)methoxy)propan-2-yl)amino)cyclohexyl)amino)-5′-chloro-[2,4′-bipyridin]-6-yl)amino)methyl)tetrahydro-2H-pyran-4-carbonitrile], the negative-log EC50 (pEC50) in the series with Hep3B cells is under 6.00; with Huh7 cells it was 6.00 to 6.30; with HepG2 cells, under 6.00; with SK-HEP-1 cells it was under 6.00. At CDK9/CyclinT, the pIC50 was under 8.00.
In the case of `CCOC(=O)COC[C@H](C)NC1CCC(Nc2cc(-c3cccc(NCC4(C#N)CCOCC4)n3)c(Cl)cn2)CC1` (stereo partly drawn) [Compound 6], the negative logarithm of the EC50 (pEC50) in the series on Hep3B cells is 6.30 to 7.00; in the series with Huh7 cells it was over 7.00; in the series on HepG2 cells it was 6.00 to 6.30; with SK-HEP-1 cells, over 7.00. This molecule also had a negative logarithm of the IC50 (pIC50) at CDK9/CyclinT of over 8.60. The “ratio of compound concentrations in blood from jugular vein versus portal vein (liver efflux/influx ratio)” value in series [2] is reported as “lower liver efflux/influx ratio than NVP-2”.
As to `C[C@H](COCC(=O)O)NC1CCC(Nc2cc(-c3cccc(NCC4(C#N)CCOCC4)n3)c(Cl)cn2)CC1` (stereo partly drawn) [Compound 8, 2-((R)-2-(((1R,4R)-4-((5′-chloro-6-(((4-cyanotetrahydro-2H-pyran-4-yl)methyl)amino)-[2,4′-bipyridin]-2′-yl)amino)cyclohexyl)amino)propoxy)acetic acid], the negative-log EC50 (pEC50) in the series with Huh7 cells, in the series on HepG2 cells and with SK-HEP-1 cells was under 6.00 throughout. The negative logarithm of the IC50 (pIC50) against CDK9/CyclinT is 8.30 to 8.60.
As for `C[C@@H](COCC(=O)O)NC1CCC(Nc2cc(-c3cccc(NCC4(C#N)CCOCC4)n3)c(Cl)cn2)CC1` (stereo partly drawn) [Compound 9, 2-((S)-2-(((1R,4S)-4-((5′-chloro-6-(((4-cyanotetrahydro-2H-pyran-4-yl)methyl)amino)-[2,4′-bipyridin]-2′-yl)amino)cyclohexyl)amino)propoxy)acetic acid], the pEC50 with Hep3B cells, in the series on Huh7 cells, in the series with HepG2 cells and in the series with SK-HEP-1 cells was under 6.00 throughout. At CDK9/CyclinT, the pIC50 was 8.00 to 8.30.
On to `CC(C)OC(=O)COC[C@@H](C)N[C@H]1CC[C@H](Nc2cc(-c3cccc(NCC4(C#N)CCOCC4)n3)c(Cl)cn2)CC1` [Compound 15, isopropyl 2-((R)-2-(((1r,4R)-4-((5′-Chloro-6-(((4-Cyanotetrahydro-2H-pyran-4-yl)methyl)amino)-[2,4′-bipyridin]-2′-yl)amino)cyclohexyl)amino)propoxy)acetate], for which the negative-log EC50 (pEC50) with Huh7 cells, with HepG2 cells and with SK-HEP-1 cells was over 7.00 each time. The pIC50 at CDK9/CyclinT is 8.30 to 8.60.
Regarding `CC(C)OC(=O)COC[C@H](C)N[C@H]1CC[C@H](Nc2cc(-c3cccc(NCC4(C#N)CCOCC4)n3)c(Cl)cn2)CC1` [Compound 16, isopropyl 2-((S)-2-(((1r,4S)-4-((5′-chloro-6-(((4-cyanotetrahydro-2H-pyran-4-yl)methyl)amino)-[2,4′-bipyridin]-2′-yl)amino)cyclohexyl)amino)propoxy)acetate], the negative-log EC50 (pEC50) in the series with Huh7 cells was over 7.00; with HepG2 cells, 6.30 to 7.00; in the series on SK-HEP-1 cells, over 7.00. The molecule also showed a pIC50 at CDK9/CyclinT of 8.00 to 8.30.
On to `C[C@H](COCC(=O)OC(C)(C)C)N[C@H]1CC[C@H](Nc2cc(-c3cccc(NCC4(C#N)CCOCC4)n3)c(Cl)cn2)CC1` [Compound 18, tert-butyl 2-((R)-2-(((1r,4R)-4-((5′-chloro-6-(((4-cyanotetrahydro-2H-pyran-4-yl)methyl)amino)-[2,4′-bipyridin]-2′-yl)amino)cyclohexyl)amino)propoxy)acetate], for which the pEC50 in the series on Hep3B cells, in the series on Huh7 cells, in the series on HepG2 cells and with SK-HEP-1 cells was over 7.00 each time. The “toxicity (mean weight changes relative to day 1)” value in series [3] was “lower toxicity than NVP-2”. This molecule also showed a negative-log IC50 (pIC50) on CDK9/CyclinT of under 8.00. The “ratio … in liver versus blood” value in series [1] is listed as “higher liver/blood ratios than NVP-2”. Besides, the “ratio of compound concentrations in blood from jugular vein versus portal vein (liver efflux/influx ratio)” value in series [2] was “lower liver efflux/influx ratio than NVP-2”.
Consider `C[C@@H](COCC(=O)OC(C)(C)C)N[C@H]1CC[C@H](Nc2cc(-c3cccc(NCC4(C#N)CCOCC4)n3)c(Cl)cn2)CC1` [Compound 19, tert-butyl 2-((S)-2-(((1r,4S)-4-((5′-chloro-6-(((4-cyanotetrahydro-2H-pyran-4-yl)methyl)amino)-[2,4′-bipyridin]-2′-yl)amino)cyclohexyl)amino)propoxy)acetate], for which the pEC50 in the series with Huh7 cells, in the series on HepG2 cells and in the series with SK-HEP-1 cells was over 7.00 each time. The molecule further showed a negative logarithm of the IC50 (pIC50) on CDK9/CyclinT of 8.30 to 8.60.
For `C[C@H](COCc1nnn(C)n1)N[C@H]1CC[C@H](Nc2cc(-c3cccc(NCC4(C#N)CCOCC4)n3)c(Cl)cn2)CC1` [Compound 33, 4-(((5′-chloro-2′-(((1R,4r)-4-(((R)-1-((2-methyl-2H-tetrazol-5-yl)methoxy)propan-2-yl)amino)cyclohexyl)amino)-[2,4′-bipyridin]-6-yl)amino)methyl)tetrahydro-2H-pyran-4-carbonitrile], the pEC50 in the series with Hep3B cells was 6.30 to 7.00; with HepG2 cells, over 7.00. Moreover, the pIC50 on CDK9/CyclinT is 8.00 to 8.30. In addition, in series [1], the “ratio … in liver versus blood” value is “higher liver/blood ratios than NVP-2”.
